Activity calls are given as the source filed them.
Legend:
SUMO-activating enzyme = SUMO-activating enzyme (Homo sapiens, UniProt Q9UBT2); test: blockers of SAE1/SAE2–UBC9 SUMO transfer – biochemical, HTRF, uHTS, primary screen (AID 2006); assay type: protein-complex assay
[1] = biological target: T1, Mannose-6-phosphate isomerase (Homo sapiens, UniProt P34949); test: MPI inhibition at elevated mannose 6-phosphate – biochemical, fluorescence intensity, high mannose 6-phosphate, primary screen (AID 1220)
T1 sequence (P34949 whole entry): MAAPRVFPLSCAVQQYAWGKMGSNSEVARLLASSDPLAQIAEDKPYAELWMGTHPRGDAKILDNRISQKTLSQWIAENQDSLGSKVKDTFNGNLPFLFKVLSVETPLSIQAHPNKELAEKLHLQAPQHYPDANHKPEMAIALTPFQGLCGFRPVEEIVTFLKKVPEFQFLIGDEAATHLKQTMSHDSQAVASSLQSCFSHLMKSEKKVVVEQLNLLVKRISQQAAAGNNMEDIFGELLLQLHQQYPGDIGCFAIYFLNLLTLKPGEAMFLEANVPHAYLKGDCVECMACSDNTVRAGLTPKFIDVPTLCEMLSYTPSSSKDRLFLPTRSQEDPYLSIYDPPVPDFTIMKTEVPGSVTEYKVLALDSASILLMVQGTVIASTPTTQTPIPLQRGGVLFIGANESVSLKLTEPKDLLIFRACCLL

[2] = biological target: T2, Runt-related transcription factor 1/Core-binding factor subunit beta (Homo sapiens, UniProt Q01196+Q13951); test: Runt domain/CBFb-SMMHC interaction disruptors – biochemical, TR-FRET (AID 1438); assay type: protein assay
T2 sequence (Q01196 whole entry, the tested form may be a part): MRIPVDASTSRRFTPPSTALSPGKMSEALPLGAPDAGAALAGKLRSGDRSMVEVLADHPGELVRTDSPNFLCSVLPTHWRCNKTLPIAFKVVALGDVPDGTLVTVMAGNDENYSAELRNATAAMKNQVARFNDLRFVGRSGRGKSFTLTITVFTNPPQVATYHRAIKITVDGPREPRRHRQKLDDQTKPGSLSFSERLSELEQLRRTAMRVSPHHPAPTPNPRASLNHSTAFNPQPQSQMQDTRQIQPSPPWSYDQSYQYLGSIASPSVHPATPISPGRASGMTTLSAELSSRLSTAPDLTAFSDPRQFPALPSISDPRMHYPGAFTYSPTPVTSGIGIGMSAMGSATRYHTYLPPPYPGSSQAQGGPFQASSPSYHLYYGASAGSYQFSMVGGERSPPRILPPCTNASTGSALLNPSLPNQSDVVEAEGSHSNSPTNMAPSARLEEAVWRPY
T2 sequence (Q13951 whole entry, the tested form may be a part): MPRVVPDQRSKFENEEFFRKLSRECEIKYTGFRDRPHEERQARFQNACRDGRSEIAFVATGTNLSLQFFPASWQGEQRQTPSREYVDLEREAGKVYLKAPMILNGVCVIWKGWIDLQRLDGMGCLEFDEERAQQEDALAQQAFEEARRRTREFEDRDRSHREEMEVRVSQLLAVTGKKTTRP

[3] = biological target: T2, Runt-related transcription factor 1/Core-binding factor subunit beta; test: disruptors of Runt domain/CBFb-SMMHC interaction – biochemical, FRET, Cerulean-Runt, Venus-CBFb-SMMHC, uHTS, […] (AID 1434); assay type: protein assay
[4] = biological target: T3, Voltage-gated N-type calcium channel alpha-1B subunit/Amyloid beta A4 precursor protein-binding family A member 1 (Homo sapiens, UniProt Q00975+Q02410); assay type: protein assay
T3 sequence (Q00975 whole entry): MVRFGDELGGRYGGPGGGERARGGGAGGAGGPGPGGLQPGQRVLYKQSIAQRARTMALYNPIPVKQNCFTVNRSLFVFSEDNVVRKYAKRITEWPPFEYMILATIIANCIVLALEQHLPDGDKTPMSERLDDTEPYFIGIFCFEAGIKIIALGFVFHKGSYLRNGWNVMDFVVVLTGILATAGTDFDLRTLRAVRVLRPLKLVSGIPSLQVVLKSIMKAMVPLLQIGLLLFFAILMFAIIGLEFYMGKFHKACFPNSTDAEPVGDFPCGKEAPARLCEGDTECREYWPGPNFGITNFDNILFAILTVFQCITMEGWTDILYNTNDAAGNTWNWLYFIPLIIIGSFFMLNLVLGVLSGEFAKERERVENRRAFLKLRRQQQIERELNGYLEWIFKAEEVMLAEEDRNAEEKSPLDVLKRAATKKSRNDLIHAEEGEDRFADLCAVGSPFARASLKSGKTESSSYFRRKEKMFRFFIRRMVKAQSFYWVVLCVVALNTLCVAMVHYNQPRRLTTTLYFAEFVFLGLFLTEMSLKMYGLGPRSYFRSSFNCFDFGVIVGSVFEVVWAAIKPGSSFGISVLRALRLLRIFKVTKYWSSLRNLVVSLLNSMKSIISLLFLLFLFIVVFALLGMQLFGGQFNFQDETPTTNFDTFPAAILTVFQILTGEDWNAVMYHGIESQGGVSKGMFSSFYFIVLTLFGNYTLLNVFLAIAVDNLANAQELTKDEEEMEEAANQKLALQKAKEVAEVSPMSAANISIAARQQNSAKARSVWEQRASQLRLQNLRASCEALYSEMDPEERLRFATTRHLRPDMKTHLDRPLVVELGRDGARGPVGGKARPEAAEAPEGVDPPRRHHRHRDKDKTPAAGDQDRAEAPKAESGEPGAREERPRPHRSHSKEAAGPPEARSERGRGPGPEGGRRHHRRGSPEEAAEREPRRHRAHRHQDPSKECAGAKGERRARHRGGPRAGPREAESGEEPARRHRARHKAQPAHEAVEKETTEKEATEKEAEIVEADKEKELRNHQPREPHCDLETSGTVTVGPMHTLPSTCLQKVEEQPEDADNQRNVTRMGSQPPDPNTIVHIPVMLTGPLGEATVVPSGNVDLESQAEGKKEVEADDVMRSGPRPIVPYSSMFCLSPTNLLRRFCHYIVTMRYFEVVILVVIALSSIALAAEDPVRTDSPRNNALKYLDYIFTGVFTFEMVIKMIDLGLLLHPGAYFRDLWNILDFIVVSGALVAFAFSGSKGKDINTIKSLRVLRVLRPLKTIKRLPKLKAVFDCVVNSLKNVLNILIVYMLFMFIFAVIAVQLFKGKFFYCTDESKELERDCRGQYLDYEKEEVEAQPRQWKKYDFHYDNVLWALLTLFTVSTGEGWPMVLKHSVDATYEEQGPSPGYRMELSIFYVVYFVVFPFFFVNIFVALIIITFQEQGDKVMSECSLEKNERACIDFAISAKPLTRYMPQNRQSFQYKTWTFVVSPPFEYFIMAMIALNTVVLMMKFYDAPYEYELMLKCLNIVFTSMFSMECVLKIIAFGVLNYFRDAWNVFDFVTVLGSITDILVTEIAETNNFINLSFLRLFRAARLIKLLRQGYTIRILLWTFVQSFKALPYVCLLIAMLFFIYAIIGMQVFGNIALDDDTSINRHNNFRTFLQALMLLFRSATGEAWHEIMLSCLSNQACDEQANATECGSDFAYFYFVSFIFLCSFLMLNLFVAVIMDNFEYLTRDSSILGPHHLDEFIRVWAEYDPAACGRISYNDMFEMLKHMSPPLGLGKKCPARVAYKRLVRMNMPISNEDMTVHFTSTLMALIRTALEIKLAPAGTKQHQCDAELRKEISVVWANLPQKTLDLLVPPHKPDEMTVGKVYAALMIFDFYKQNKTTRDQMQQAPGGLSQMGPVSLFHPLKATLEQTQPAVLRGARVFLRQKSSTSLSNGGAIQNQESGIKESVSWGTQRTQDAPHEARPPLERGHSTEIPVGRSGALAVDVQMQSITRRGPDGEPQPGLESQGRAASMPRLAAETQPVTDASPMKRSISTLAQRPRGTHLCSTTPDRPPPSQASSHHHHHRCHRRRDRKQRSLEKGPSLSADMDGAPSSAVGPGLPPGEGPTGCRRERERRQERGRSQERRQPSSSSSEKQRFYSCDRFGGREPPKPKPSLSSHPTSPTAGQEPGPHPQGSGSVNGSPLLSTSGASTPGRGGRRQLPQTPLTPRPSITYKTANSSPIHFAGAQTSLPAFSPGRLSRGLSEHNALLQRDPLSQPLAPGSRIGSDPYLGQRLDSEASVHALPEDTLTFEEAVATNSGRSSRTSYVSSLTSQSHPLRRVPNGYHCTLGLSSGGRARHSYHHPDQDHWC
T3 sequence (Q02410 whole entry): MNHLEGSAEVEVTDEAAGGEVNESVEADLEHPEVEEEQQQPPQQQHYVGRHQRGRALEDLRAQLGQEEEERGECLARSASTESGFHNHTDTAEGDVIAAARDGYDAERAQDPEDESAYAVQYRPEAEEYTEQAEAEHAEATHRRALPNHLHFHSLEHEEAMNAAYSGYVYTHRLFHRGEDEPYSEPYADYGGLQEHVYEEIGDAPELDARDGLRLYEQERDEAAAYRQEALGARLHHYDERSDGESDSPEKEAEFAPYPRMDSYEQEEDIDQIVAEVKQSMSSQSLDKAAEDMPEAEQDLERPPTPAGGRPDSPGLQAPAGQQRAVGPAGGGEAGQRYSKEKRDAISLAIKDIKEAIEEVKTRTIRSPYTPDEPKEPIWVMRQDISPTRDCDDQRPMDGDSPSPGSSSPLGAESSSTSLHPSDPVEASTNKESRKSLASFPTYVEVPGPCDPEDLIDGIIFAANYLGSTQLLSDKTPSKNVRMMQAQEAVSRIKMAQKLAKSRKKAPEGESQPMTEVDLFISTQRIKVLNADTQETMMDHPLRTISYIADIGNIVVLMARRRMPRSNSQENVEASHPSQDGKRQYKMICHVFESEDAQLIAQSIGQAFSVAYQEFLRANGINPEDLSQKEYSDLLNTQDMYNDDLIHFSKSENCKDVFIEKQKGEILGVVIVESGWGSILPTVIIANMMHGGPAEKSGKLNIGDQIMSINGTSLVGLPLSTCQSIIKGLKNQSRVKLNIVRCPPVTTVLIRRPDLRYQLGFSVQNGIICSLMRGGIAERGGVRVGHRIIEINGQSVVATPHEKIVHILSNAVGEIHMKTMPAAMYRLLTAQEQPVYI

[5] = biological target: T3, Voltage-gated N-type calcium channel alpha-1B subunit/Amyloid beta A4 precursor protein-binding family A member 1; assay type: protein assay; remark: listed apart in the source
[6] = biological target: T4, Corticotropin-releasing factor receptor 2/Corticotropin-releasing factor-binding protein (Homo sapiens, UniProt P24387+Q13324); test: Dose Response confirmation of uHTS hits for small molecule antagonists of the CRF-binding protein and CRF-R2 receptor complex.; assay type: functional; details: read-out: IC50_Mean
T4 sequence (Q13324 whole entry): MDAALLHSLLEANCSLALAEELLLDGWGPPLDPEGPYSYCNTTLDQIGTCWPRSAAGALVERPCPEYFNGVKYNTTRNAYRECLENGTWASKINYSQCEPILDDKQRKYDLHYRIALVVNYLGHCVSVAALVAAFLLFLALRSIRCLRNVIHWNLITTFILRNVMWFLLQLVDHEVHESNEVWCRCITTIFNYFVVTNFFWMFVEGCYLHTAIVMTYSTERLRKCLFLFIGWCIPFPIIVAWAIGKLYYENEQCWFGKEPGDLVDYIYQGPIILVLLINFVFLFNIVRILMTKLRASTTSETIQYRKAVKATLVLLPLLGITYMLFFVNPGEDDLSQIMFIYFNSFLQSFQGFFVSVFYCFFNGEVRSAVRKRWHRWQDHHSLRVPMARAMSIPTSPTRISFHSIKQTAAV
T4 sequence (P24387 whole entry): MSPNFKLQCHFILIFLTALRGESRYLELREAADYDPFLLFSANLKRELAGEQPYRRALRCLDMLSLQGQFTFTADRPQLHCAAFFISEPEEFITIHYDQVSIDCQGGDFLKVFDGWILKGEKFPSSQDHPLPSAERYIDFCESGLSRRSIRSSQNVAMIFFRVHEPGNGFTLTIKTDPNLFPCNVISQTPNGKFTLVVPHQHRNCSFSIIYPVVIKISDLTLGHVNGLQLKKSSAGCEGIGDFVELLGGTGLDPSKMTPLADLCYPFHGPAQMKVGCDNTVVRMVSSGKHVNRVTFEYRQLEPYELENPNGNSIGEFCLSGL

Streptokinase A = biological target: T5, Streptokinase A (Streptococcus pyogenes serotype M1, UniProt P10520); test: viability-normalized secreted streptokinase activity reduction – plasminogen activation absorbance, OD405, dose response (AID 1914); assay type: functional, Streptococcus pyogenes M1 GAS;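 note: secreted streptokinase activity via plasminogen activation per viability signal from cell pellet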
T5 sequence (P10520 whole entry): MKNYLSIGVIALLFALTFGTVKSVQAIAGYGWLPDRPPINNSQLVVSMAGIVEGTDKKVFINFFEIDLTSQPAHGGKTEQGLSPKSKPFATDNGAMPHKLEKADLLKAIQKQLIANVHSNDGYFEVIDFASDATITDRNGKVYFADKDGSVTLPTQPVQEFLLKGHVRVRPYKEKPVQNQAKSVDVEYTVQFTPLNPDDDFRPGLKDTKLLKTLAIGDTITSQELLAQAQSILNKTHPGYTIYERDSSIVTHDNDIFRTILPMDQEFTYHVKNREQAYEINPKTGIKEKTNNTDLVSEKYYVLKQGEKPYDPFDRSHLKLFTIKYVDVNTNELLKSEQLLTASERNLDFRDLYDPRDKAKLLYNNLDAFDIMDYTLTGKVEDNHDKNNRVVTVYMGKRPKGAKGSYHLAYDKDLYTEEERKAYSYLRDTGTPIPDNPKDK

[7] = biological target: T4, Corticotropin-releasing factor receptor 2/Corticotropin-releasing factor-binding protein; test: activators of CRF receptor 2 with binding protein – uHTS hits, confirmation (AID 602473); assay type: functional; details: read-out: EC50_Mean
[8] = tested on: Streptococcus sp. 'group A'; test: Streptococcus pyogenes SK(-)GAS viability under kanamycin – luminescence, BacTiterGlo, confirmation, counter-screen for streptokinase expression inhibitor project, dose response (AID 1900); assay type: functional, organism-based
Streptococcus = test: GAS UMAA2166 growth inhibition – luminescence, BacTiterGlo, counter-screen for streptokinase expression inhibitor project, dose response (AID 1915); assay type: functional, organism-based;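 note: potency for reduction of bacterial viability or growth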
[9] = HEK-293T viability loss after treatment – luminescence, T-cell screen hits, cytotoxicity control for TCR NF-kB inhibitor project, dose response (AID 489026); assay type: functional, cell-based;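 note: cells exposed to compound about 14 hours before the viability readout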
[10] = biological target: COUP transcription factor 2 (Homo sapiens, UniProt P24468); test: Luminescence-based cell-based high throughput dose response assay to identify inhibitors of COUP-TFII (NR2F2).; assay type: functional;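 note: HEK293 cells transiently cotransfected with COUP-TFII expression vector and reporter; luciferase reporter luminescence driven by COUP-TFII from the pX2-168 reporter plasmid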
CAAX prenyl protease 2 = biological target: T6, CAAX prenyl protease 2 (Saccharomyces cerevisiae S288c, UniProt Q03530); assay type: biochemical
T6 sequence (Q03530 whole entry): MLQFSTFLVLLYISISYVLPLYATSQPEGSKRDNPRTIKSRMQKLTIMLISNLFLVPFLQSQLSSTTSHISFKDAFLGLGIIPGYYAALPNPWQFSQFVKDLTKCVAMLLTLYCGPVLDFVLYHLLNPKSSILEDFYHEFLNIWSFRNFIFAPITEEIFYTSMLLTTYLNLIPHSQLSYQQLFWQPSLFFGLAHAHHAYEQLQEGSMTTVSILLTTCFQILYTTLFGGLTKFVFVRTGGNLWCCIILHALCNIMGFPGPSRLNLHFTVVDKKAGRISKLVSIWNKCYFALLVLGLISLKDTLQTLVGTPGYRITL

Trypsin = Trypsin (Sus scrofa, UniProt P00761); test: trypsin protease activity blockade – biochemical, quenched peptide fluorescence, cherry-pick, selectivity assay for Rce1 protease inhibitor project, dose response (AID 488789)
Beta Lactamase = Beta Lactamase (Pseudomonas aeruginosa, UniProt Q932Y6); test: BLA reporter interference, concentration series – BLA reporter cells, FRET fluorescence, artefact control for NOD2-RIPK2 interaction inhibitor project, dose response (AID 651552); assay type: functional, cell-based
[11] = viability of HCT116 lacking mutant beta-catenin – cell-based, human colon tumor, dose response (AID 1045); assay type: functional;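 note: HCT116 colon tumor cells with beta catenin knocked out; cells exposed to compound for 60 hours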
[12] = viability of PTEN-deleted HCT116 cells – cell-based, HCT116 PTEN knockout, dose response (AID 1047); assay type: functional;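 note: HCT116 colon tumor cells with PTEN knocked out; cells exposed to compound for 60 hours before readout; potency for loss of cell viability measured by luminescence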
[13] = Fluorescence-based cell-based high throughput dose response assay for inhibitors of the interaction of nucleotide-binding oligomerization domain containing 2 (NOD2) and the receptor-interacting serine-threonine kinase 2 (RIPK2).; assay type: functional; details: Homo sapiens
Hexokinase HKDC1 = biological target: T7, Hexokinase HKDC1 (Homo sapiens, UniProt Q2TB90); test: inhibition of HKDC1 glucose phosphorylation – biochemical, W721R variant, dose response (AID 504729); assay type: functional
T7 sequence (Q2TB90 whole entry): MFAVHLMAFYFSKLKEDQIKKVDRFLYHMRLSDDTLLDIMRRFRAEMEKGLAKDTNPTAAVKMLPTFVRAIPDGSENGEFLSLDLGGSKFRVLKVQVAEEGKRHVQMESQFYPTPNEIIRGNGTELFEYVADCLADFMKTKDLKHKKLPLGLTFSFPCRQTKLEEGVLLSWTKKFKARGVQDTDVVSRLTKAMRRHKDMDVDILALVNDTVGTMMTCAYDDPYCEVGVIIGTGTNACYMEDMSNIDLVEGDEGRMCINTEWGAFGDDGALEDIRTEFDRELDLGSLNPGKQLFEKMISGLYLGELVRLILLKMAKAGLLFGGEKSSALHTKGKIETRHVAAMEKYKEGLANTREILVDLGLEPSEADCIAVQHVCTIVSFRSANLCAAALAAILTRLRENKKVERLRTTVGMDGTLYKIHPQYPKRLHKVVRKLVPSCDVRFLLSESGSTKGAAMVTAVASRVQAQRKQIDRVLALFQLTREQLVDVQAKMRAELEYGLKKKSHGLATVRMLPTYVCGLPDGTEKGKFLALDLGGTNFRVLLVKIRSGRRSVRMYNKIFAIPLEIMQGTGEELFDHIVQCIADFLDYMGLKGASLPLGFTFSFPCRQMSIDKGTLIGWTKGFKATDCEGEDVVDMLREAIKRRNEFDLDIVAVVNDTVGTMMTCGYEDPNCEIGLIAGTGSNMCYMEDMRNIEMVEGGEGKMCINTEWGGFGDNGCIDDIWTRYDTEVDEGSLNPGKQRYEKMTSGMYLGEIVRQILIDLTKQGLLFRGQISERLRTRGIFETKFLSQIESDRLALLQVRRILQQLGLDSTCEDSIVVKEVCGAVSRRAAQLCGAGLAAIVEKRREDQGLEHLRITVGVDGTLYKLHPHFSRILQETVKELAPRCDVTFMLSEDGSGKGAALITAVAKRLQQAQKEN

Coagulation factor XII = Coagulation factor XII (Homo sapiens, UniProt P00748); assay type: functional;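 note: activated factor XIIa alpha cleaving a fluorogenic AMC peptide substrate; inhibitor potency from loss of enzyme activity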
Chain of Coagulation factor XII (P00748 20-372 limits assumed): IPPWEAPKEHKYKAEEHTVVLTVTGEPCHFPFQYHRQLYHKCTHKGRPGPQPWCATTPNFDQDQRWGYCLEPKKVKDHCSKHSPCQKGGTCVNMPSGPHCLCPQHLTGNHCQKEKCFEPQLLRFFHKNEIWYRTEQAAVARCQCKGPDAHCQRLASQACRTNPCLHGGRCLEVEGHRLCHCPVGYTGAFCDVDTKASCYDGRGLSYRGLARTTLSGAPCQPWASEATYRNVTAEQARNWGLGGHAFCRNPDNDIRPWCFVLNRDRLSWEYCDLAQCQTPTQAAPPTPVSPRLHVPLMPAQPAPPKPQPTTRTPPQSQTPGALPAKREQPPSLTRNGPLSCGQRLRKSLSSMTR
Chain of Coagulation factor XII (P00748 373-615 limits assumed): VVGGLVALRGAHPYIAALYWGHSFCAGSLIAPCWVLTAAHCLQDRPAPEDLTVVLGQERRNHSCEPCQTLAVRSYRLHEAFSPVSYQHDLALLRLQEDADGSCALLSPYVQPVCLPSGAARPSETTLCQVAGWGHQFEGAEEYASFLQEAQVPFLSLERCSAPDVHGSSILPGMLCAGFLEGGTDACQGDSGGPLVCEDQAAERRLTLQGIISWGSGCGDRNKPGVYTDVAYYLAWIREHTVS

[14] = biological target: Voltage-dependent T-type calcium channel subunit alpha-1H (Homo sapiens, UniProt O95180); test: human CACNA1H calcium influx blockade – cell-based, synthetic library set 1, calcium flux (AID 493022); assay type: functional
Hexokinase = Hexokinase (Trypanosoma brucei, UniProt Q38C41); test: Confirmation assay for inhibitors of Trypanosoma brucei hexokinase 1-Analogue-first series. [Related pubchem assays (depositor defined):AID1430, AID1632, AID2516, AID2560, AID2579, AID2600, AID449725, AID492951]; assay type: functional
[15] = biological target: Alkaline phosphatase, placental type (Homo sapiens, UniProt P05187); test: human placental alkaline phosphatase inhibition – biochemical, luminescence, confirmation (AID 1512); assay type: functional
Chain of Alkaline phosphatase, placental type (P05187 whole entry): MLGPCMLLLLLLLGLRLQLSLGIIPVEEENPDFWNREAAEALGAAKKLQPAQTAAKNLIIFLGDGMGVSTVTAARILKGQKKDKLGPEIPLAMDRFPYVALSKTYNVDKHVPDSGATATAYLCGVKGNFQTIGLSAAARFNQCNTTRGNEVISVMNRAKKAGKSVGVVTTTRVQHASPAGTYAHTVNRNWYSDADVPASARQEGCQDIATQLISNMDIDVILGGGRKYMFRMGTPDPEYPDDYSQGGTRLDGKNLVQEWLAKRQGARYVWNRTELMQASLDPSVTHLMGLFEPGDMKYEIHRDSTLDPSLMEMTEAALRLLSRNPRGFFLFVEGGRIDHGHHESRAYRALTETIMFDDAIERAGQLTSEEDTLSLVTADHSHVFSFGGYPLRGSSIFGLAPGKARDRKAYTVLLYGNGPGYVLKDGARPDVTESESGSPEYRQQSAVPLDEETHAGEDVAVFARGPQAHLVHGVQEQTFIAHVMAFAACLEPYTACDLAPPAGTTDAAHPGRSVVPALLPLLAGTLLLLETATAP

[16] = biological target: T8, Alkaline phosphatase, tissue-nonspecific isozyme (Homo sapiens, UniProt P05186); test: potency against alkaline phosphatase TNAP – biochemical, luminescent, dose response, SAR follow-up (AID 1056)
T8 sequence (P05186 whole entry): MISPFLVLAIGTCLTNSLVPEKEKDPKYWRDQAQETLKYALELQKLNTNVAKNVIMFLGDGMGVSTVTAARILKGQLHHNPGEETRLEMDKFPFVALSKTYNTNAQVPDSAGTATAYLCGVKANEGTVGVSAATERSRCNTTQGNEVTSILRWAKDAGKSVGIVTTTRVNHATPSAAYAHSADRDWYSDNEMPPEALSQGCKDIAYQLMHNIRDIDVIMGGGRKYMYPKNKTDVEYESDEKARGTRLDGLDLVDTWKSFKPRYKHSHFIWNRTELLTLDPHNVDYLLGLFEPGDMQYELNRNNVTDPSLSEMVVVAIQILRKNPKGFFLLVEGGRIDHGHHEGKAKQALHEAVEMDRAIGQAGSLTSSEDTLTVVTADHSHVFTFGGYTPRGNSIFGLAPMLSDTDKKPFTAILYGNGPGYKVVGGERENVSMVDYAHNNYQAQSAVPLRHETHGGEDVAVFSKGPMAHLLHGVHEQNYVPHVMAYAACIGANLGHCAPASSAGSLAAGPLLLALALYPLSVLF

CCN(CC)C(=O)C1CCCN(C(=O)Nc2ccc3nsnc3c2)C1 (stereo unspecified)
IC50 (SUMO-activating enzyme): 12 µM (active)
IC50 [1]: > 50 µM (not active)

Cc1cccn2c(=O)c(/C=C(\C#N)C(=O)NCc3ccco3)c(N3CCCC(C)C3)nc12 (stereo unspecified)
IC50 [2]: > 100 µM (inactive)
IC50 [3]: > 100 µM (inactive)

COc1ccc(-c2cc3c(=O)n(CC(=O)Nc4ccc(C(C)=O)cc4)ncn3n2)cc1
IC50 [4]: 7.89 µM (active)
IC50 [5]: > 50 µM (inactive)

CCC(=O)Nc1c(S(=O)(=O)c2ccccc2)c2nc3ccccc3nc2n1Cc1ccccc1
IC50 [2]: > 100 µM (inactive)
IC50 [3]: 4.74 µM (active)

COc1ccc(-c2ccc3oc(-c4ccc(OC)cc4)c(C#CCO)c3c2)cc1
IC50 [6]: > 47.1 µM (inactive)
EC50 (Streptokinase A): > 150 µM (not active)
EC50 [7]: > 53 µM (inactive)
EC50 [8]: > 150 µM (not active)
EC50 (Streptococcus): > 150 µM (not active)
IC50 [9]: > 80 µM (inactive)
IC50 [10]: 3.38 µM (active)

CCn1cc(/C=C(\NC(=O)c2ccccc2)C(=O)N2CCOCC2)c2ccccc21
AC50 (CAAX prenyl protease 2): 5.85 µM (active)
AC50 (Trypsin): 23.6 µM (active)

CC(C)(C=O)C1=CC(=O)c2ccccc2C1=O
IC50 (Beta Lactamase): 11.5 µM (inactive)
EC50 [11]: 4.58 µM (active)
EC50 [12]: 4.68 µM (active)
IC50 [13]: 1.23 µM (active)
IC50 (Hexokinase HKDC1): 27.9 µM (inactive)

c1ccc(-n2cccc2)c(N2CCCCC2)c1
IC50 (Coagulation factor XII): > 50 µM (inactive)

O=C(COc1ccccc1Cl)Nc1nnc(-c2ccc3c(c2)OCCO3)o1
EC50 [14]: 3.1 µM (active)

O=C(COc1ccccc1F)Nc1nnc(-c2ccc3c(c2)CCCC3)o1
EC50 [14]: 1.7 µM (active)

COc1ccc(C(=O)Nc2cccc(Cl)c2)cc1
IC50 (Hexokinase): > 25 µM (inactive)

CCCCN1C(=O)/C(=N\Nc2ccccc2Cl)c2ccccc21
IC50 [15]: 91.6 µM (active)
IC50 [16]: > 100 µM (inactive)

C/C(Cc1ccccc1)=N\NC(=O)CNC(=O)c1ccc(Cl)cc1Cl
IC50 (Coagulation factor XII): > 50 µM (inactive)

O=C(CSc1nc2ccccc2[nH]1)c1ccc(O)c(O)c1
IC50 [15]: 4.79 µM (active)
IC50 [16]: 5.44 µM (active)
